# Measurements taken from patent US6555538B2, “5-arylsulfonyl-imidazo[1′,2′:1,6]pyrido[2,3-b]pyrazine-6-amines and related compounds” (Pfizer Inc, priority 1999, dated 2003).
row,melting point [°C],SMILES
1,294 to 295,"Cc1ccc(S(=O)(=O)c2c(N)c3nccn3c3nccnc23)cc1 [Example 1, 5-[(4-Methylphenyl)sulfonyl]-imidazo[1′,2′:1,6]pyrido[2,3-b]pyrazin-6-amine]"
2,> 300,"Cc1ccc(S(=O)(=O)c2c(N)c3nncn3c3nccnc23)cc1 [Example 2, 5-[(4-methylphenyl)sulfonyl]-[1,2,4]triazolo[4′,3′:1,6]pyrido[2,3-b]pyrazin-6-amine]"
3,267.5 to 268.5,"CCc1ccc(S(=O)(=O)c2c(N)c3nccn3c3nccnc23)cc1 [Example 3, 5-[(4-ethylphenyl)sulfonyl]-imidazo[1′,2′:1,6]pyrido[2,3-b]pyrazin-6-amine]"
4,241 to 244,"CC(C)c1ccc(S(=O)(=O)c2c(N)c3nccn3c3nccnc23)cc1 [Example 4, 5-[(4-isopropylphenyl)sulfonyl]-imidazo[1′,2′:1,6]pyrido[2,3-b]pyrazin-6-amine]"
5,231 to 232,"CCCc1ccc(S(=O)(=O)c2c(N)c3nccn3c3nccnc23)cc1 [Example 5, 5-[(4-propylphenyl)sulfonyl]-imidazo[1′,2′:1,6]pyrido[2,3-b]pyrazin-6-amine]"
6,269 to 270,"COc1ccc(S(=O)(=O)c2c(N)c3nccn3c3nccnc23)cc1 [Example 6, 5-[(4-methoxyphenyl)sulfonyl]-imidazo[1′,2′:1,6]pyrido[2,3-b]pyrazin-6-amine]"
7,> 300,"Nc1c(S(=O)(=O)c2ccc(O)cc2)c2nccnc2n2ccnc12 [Example 8, 5-[(4-Hydroxyphenyl)sulfonyl]-imidazo[1′,2′:1,6]pyrido[2,3-b]pyrazin-6-amine]"
